Test results reported in patent US20230357253A1, “AGONISTS OF STIMULATOR OF INTERFERON GENES STING” (THE SCRIPPS RESEARCH INSTITUTE, priority 2020, published 2023).
pEC50, pIC50: −log10 of the molar value.

Legend:
[1] = system: THP-1 Lucia ISG cells; test: ISRE-luciferase assay (ISG-LUC activation); type: cell-based; conditions: Homo sapiens, THP1-Lucia ISG, 24 hours, luciferase reporter
Method in brief: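 THP-1 Lucia ISG cells at 5×10^5 cells/ml in 2% FBS medium were treated with test article or DMSO vehicle for 24 h. Secreted luciferase was read by luminescence and normalized to vehicle, reported as RLU.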

[2] = biological target: human STING protein (Homo sapiens (Human), UniProt Q86WV6); test: WT STING binding assay (HTRF, competition with labeled 2′3′cGAMP); conditions: recombinant 6×His-tagged human STING, three hours at room temperature
Method: WT STING binding assay (Cisbio, Catalog #64BDSTGPEH). […] Upon proximity of the two dyes, the excitation of the donor by the flash lamp on the PHERAstar FSX plate reader triggers a Fluorescence Resonance Energy Transfer (FRET) towards the acceptor, which in turn fluoresces at 665 nm. To assess the ability of the synthetic small molecule STING ligands to bind to human STING, a competitive assay format was applied. A 10-point titration of each of the synthetic ligands in 5 uL were transferred into a 384 well plate, followed by 20 uL of assay buffer containing the 6×His-tagged human STING protein and labeled 2′3′cGAMP ligand and incubated for three hours at room temperature. The raw values obtained from the PHERAstar were used to calculate the reported IC50 values (the signal is inversely proportional to the binding of the synthetic ligand) through curve fitting in Genedata. The percent inhibition was calculated based upon the maximal amount of binding by synthetic compound versus the maximum binding of unlabeled 2′3′ cGAMP which was used as a control in each assay.

human STING protein, sequence (Q86WV6 whole entry): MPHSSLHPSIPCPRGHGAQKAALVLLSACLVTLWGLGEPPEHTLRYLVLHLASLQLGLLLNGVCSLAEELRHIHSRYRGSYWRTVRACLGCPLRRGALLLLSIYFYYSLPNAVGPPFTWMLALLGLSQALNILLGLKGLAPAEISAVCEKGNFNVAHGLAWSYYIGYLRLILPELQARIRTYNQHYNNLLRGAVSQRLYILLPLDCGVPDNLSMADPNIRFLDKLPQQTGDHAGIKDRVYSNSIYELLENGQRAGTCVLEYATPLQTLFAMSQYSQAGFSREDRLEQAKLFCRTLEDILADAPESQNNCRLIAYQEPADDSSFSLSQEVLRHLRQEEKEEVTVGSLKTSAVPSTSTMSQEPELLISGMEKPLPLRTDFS

O=C(Nc1cc(CCCc2ccc(C(=O)O)c(NC(=O)c3ccc4nnnn4n3)c2)c(Cl)cc1C(=O)O)c1ccc(-n2ccnc2)nn1 [Compound 105]
pEC50 [1]: 5.30 to 6.30 | pIC50 [2]: 7.00 to 8.00

COc1cc(C(=O)O)c(NC(=O)c2ccc(-n3ccnc3)nn2)cc1CCCc1cc(NC(=O)c2ccc3nnnn3n2)c(C(=O)O)cc1F [Compound 107]
pEC50 [1]: 6.30 to 7.30 | pIC50 [2]: 7.00 to 8.00

COc1cc(C(=O)O)c(NC(=O)c2ccc(-n3ccnc3)nn2)cc1OCCc1cc(NC(=O)c2ccc3nnnn3n2)c(C(=O)O)cc1Cl [Compound 109]
pEC50 [1]: 5.30 to 6.30 | pIC50 [2]: 6.00 to 7.00

COc1cc(C(=O)O)c(NC(=O)c2ccc(-n3ccnc3)nn2)cc1OCCc1cc(NC(=O)c2ccc3nnnn3n2)c(C(=O)O)cc1F [Compound 110]
pEC50 [1]: < 5.30 | pIC50 [2]: 6.00 to 7.00

O=C(Nc1cc(CCCc2cc(NC(=O)c3ccc(-n4ccnc4)nn3)c(C(=O)O)cc2F)c(F)cc1C(=O)O)c1cccnn1 [Compound 111]
pEC50 [1]: 6.30 to 7.30 | pIC50 [2]: 7.00 to 8.00

O=C(Nc1cc(CCCc2cnc(C(=O)O)c(NC(=O)c3ccc4nnnn4n3)c2)c(F)cc1C(=O)O)c1ccc(-n2ccnc2)nn1 [Compound 112]
pEC50 [1]: 5.30 to 6.30 | pIC50 [2]: 7.00 to 8.00

O=C(Nc1cc(OCCc2cc(NC(=O)c3ccc4nnnn4n3)c(C(=O)O)cc2Cl)ccc1C(=O)O)c1ccc(-n2ccnc2)nn1 [Compound 114]
pEC50 [1]: 6.30 to 7.30 | pIC50 [2]: 6.00 to 7.00

COc1cc(C(=O)O)c(NC(=O)c2ccc3nnnn3n2)cc1CCCc1cc(NC(=O)c2ccc(-n3ccnc3)nn2)c(C(=O)O)cc1F [Compound 115]
pEC50 [1]: 6.30 to 7.30 | pIC50 [2]: 7.00 to 8.00

O=C(Nc1cc(OCCc2cc(NC(=O)c3ccc4nnnn4n3)c(C(=O)O)cc2F)c(F)cc1C(=O)O)c1ccc(-n2ccnc2)nn1 [Compound 116]
pEC50 [1]: 6.30 to 7.30 | pIC50 [2]: 7.00 to 8.00

O=C(Nc1cc(CCCc2cc(NC(=O)c3ccc4cnnn4n3)c(C(=O)O)cc2F)c(F)cc1C(=O)O)c1ccc(-n2ccnc2)nn1 [Compound 117]
pEC50 [1]: 5.30 to 6.30 | pIC50 [2]: 7.00 to 8.00

O=C(Nc1cc(CCOc2c(F)cc(C(=O)O)c(NC(=O)c3ccc4nnnn4n3)c2F)c(F)cc1C(=O)O)c1ccc(-n2ccnc2)nn1 [Compound 118]
pEC50 [1]: 5.30 to 6.30 | pIC50 [2]: 6.00 to 7.00

O=C(Nc1cc(CCOc2cc(NC(=O)c3ccc(-n4ccnc4)nn3)c(C(=O)O)cc2F)c(F)cc1C(=O)O)c1ccc(-n2ccnc2)nn1 [Compound 119]
pEC50 [1]: 6.30 to 7.30 | pIC50 [2]: 7.00 to 8.00

O=C(Nc1cc(CCOc2c(F)cc(C(=O)O)c(NC(=O)c3ccc(-n4ccnc4)nn3)c2F)c(F)cc1C(=O)O)c1ccc(-n2ccnc2)nn1 [Compound 123]
pEC50 [1]: 6.30 to 7.30 | pIC50 [2]: 6.00 to 7.00

COc1cc(C(=O)O)c(NC(=O)c2ccc(-n3ccnc3)nn2)cc1CSCc1cc(NC(=O)c2ccc(-n3ccnc3)nn2)c(C(=O)O)cc1F [Compound 124]
pEC50 [1]: 6.30 to 7.30 | pIC50 [2]: 7.00 to 8.00

COc1cc(C(=O)O)c(NC(=O)c2ccc(-n3ccnc3)nn2)cc1OCCc1cc(C(=O)O)c(NC(=O)c2ccc3nnnn3n2)cc1C#N [Compound 128]
pEC50 [1]: 6.30 to 7.30 | pIC50 [2]: 7.00 to 8.00

O=C(Nc1cc(OCCc2cc(NC(=O)c3ccc(-n4ccnc4)nn3)c(C(=O)O)cc2Cl)c(F)cc1C(=O)O)c1ccc(-n2ccnc2)nn1 [Compound 129]
pEC50 [1]: 6.30 to 7.30 | pIC50 [2]: 7.00 to 8.00

NC(=O)c1nnn2nc(C(=O)Nc3cc(CCOc4cc(NC(=O)c5ccc(-n6ccnc6)nn5)c(C(=O)O)cc4F)c(F)cc3C(=O)O)ccc12 [Compound 135]
pEC50 [1]: 6.30 to 7.30 | pIC50 [2]: 7.00 to 8.00

N#Cc1nnn2nc(C(=O)Nc3cc(CCOc4cc(NC(=O)c5ccc(-n6ccnc6)nn5)c(C(=O)O)cc4F)c(F)cc3C(=O)O)ccc12 [Compound 136]
pEC50 [1]: < 5.30 | pIC50 [2]: 6.00 to 7.00

Nc1cc(C(=O)Nc2cc(OCCc3cc(NC(=O)c4ccc(-n5ccnc5)nn4)c(C(=O)O)cc3F)c(F)cc2C(=O)O)nn2nnnc12 [Compound 137]
pEC50 [1]: 6.30 to 7.30 | pIC50 [2]: 7.00 to 8.00

COC(=O)c1cc(F)c(CCOc2cc(NC(=O)c3ccc(-n4ccnc4)nn3)c(C(=O)O)cc2F)cc1NC(=O)c1ccc(-n2ccnc2)nn1 [Compound 140]
pEC50 [1]: > 7.30 | pIC50 [2]: 6.00 to 7.00

COc1cc(NC(=O)c2ccc(-n3ccnc3)nn2)c(C(=O)O)cc1OCCc1cc(NC(=O)c2ccc(-n3ccnc3)nn2)c(C(=O)O)cc1F [Compound 142]
pEC50 [1]: 6.30 to 7.30 | pIC50 [2]: 7.00 to 8.00

O=C(Nc1cc(CS(=O)(=O)Cc2cc(NC(=O)c3ccc(-n4ccnc4)nn3)c(C(=O)O)cc2F)c(F)cc1C(=O)O)c1ccc(-n2ccnc2)nn1 [Compound 143]
pEC50 [1]: < 5.30 | pIC50 [2]: 7.00 to 8.00

COc1cc(NC(=O)c2ccc3nnnn3n2)c(C(=O)O)cc1OCCc1cc(NC(=O)c2ccc(-n3ccnc3)nn2)c(C(=O)O)cc1F [Compound 147]
pEC50 [1]: < 5.30 | pIC50 [2]: 6.00 to 7.00

O=C(Nc1cc(CCOCc2cc(NC(=O)c3ccc(-n4ccnc4)nn3)c(C(=O)O)cc2F)c(F)cc1C(=O)O)c1ccc(-n2ccnc2)nn1 [Compound 149]
pEC50 [1]: 5.30 to 6.30 | pIC50 [2]: 7.00 to 8.00

O=C(Nc1cc(COCc2cc(NC(=O)c3ccc(-n4ccnc4)nn3)c(C(=O)O)cc2F)c(F)cc1C(=O)O)c1ccc(-n2ccnc2)nn1 [Compound 151]
pEC50 [1]: 6.30 to 7.30 | pIC50 [2]: 7.00 to 8.00

O=C(Nc1cc(OCCc2cc(NC(=O)c3ccc(-n4ccnc4)nn3)c(C(O)C(=O)O)cc2F)c(F)cc1C(=O)O)c1ccc(-n2ccnc2)nn1 (stereo not shown) [Compound 154]
pEC50 [1]: 5.30 to 6.30 | pIC50 [2]: 6.00 to 7.00

O=C(Nc1cc(CCOc2cc(NC(=O)c3ccc4nnnn4n3)c(C(=O)O)cc2F)c(F)cc1C(=O)O)c1ccc2nnnn2n1 [Compound 160]
pEC50 [1]: < 5.30 | pIC50 [2]: 6.00 to 7.00

O=C(Nc1cc(CCCc2cc(NC(=O)c3ccc4nnnn4n3)c(C(=O)O)cc2F)c(F)cc1C(=O)O)c1ccc2nnnn2n1 [Compound 161]
pEC50 [1]: < 5.30 | pIC50 [2]: 6.00 to 7.00

N#Cc1cc(C(=O)O)c(NC(=O)c2ccc(-n3ccnc3)nn2)cc1OCCc1cc(NC(=O)c2ccc(-n3ccnc3)nn2)c(C(=O)O)cc1F [Compound 167]
pEC50 [1]: 6.30 to 7.30 | pIC50 [2]: 7.00 to 8.00

COc1cc(NC(=O)c2ccc(-n3ccnc3)nn2)c(C(=O)O)c(F)c1CCCc1cc(NC(=O)c2ccc(-n3ccnc3)nn2)c(C(=O)O)cc1F [Compound 170]
pEC50 [1]: 6.30 to 7.30 | pIC50 [2]: 7.00 to 8.00

O=C(Nc1cc(OCCOc2cc(NC(=O)c3ccc(-n4ccnc4)nn3)c(C(=O)O)cc2F)c(F)cc1C(=O)O)c1ccc(-n2ccnc2)nn1 [Compound 171]
pEC50 [1]: 6.30 to 7.30 | pIC50 [2]: 7.00 to 8.00

O=C(Nc1cc(F)c(CCCc2cc(C(=O)O)c(NC(=O)c3ccc(-n4ccnc4)nn3)cc2F)cc1C(=O)O)c1ccc(-n2ccnc2)nn1 [Compound 172]
pEC50 [1]: < 5.30 | pIC50 [2]: 6.00 to 7.00

CCOC(=O)c1cc(F)c(CCCc2cc(NC(=O)c3ccc(-n4ccnc4)nn3)c(C(=O)O)cc2F)cc1NC(=O)c1ccc(-n2ccnc2)nn1 [Compound 173, 2-(6-(1H-imidazol-1-yl)pyridazine-3-carboxamido)-4-(3-(5-(6-(1H-imidazol-1-yl)pyridazine-3-carboxamido)-4-(ethoxycarbonyl)-2-fluorophenyl)propyl)-5-fluorobenzoic acid]
pEC50 [1]: > 7.30 | pIC50 [2]: 7.00 to 8.00

O=C(Nc1cc(OCCc2cc(C(=O)O)c(NC(=O)c3ccc4nnnn4n3)cc2F)c(F)cc1C(=O)O)c1ccc2nnnn2n1 [Compound 176]
pEC50 [1]: < 5.30 | pIC50 [2]: 6.00 to 7.00

O=C(Nc1cc(OCCc2cc(NC(=O)c3ccc(-n4ccnc4)nn3)c(C(=O)O)nc2Cl)c(F)cc1C(=O)O)c1ccc(-n2ccnc2)nn1 [Compound 181]
pEC50 [1]: 6.30 to 7.30 | pIC50 [2]: 7.00 to 8.00
